Key:
[1] = tested on: interstitial collagenase (type-1 metalloprotease, MMP-1) production by HT1080 cells; assay: Production of interstitial collagenase in HT1080 cell culture (ELISA, Biotrack human MMP1); assay type: cell-based; settings: for percentage of reduction of the production of interstitial collagenase relative to the control: compound 25 μg/ml, culture medium 96 hours after contact
Protocol: (§1) The effect of 2-dimethylaminoethyl 10-hydroxy-2-decenoate on the production of interstitial collagenase was evaluated in a culture model of A2058 cells (derived from human melanomas: Templeton N. S. et al. 1990; Cancer Res., 50:5431-5431) and in a culture model of HT1080 cells derived from a human fibrosarcoma (American type Culture Collection: reference CCL 121).
(§2) The A2058 cells constitutively express and secrete type-1 metalloprotease. The HT1080 cells express little type-1 metalloprotease in the basal state, but this expression is increased in the presence of TPA.
(§3) The cells are incubated in an MEM medium without phenol red, containing amino acids at a concentration of 2 mM, sodium pyruvate at a concentration of 1 mM and calf serum containing 10% […]. They are then cultured at a density of 20 000 cells per well in the 24 wells of a multiwell plate.
(§4) Twenty-four hours after culturing, the cells are placed in contact with 2-dimethylaminoethyl 10-hydroxy-2-decenoate at a concentration of 25 μg/ml. The production of the interstitial collagenase is evaluated 96 hours later in the culture medium. This is performed using an ELISA kit (Biotrack human MMP1; Amersham).
(§5) The results are expressed as a percentage of reduction of the production of interstitial collagenase relative to the control, i.e. relative to culturing performed under the same conditions in the absence of derivative.

[2] = tested on: interstitial collagenase (type-1 metalloprotease, MMP-1) production by A2058 cells; assay: Production of interstitial collagenase in A2058 cell culture (ELISA, Biotrack human MMP1); assay type: cell-based
Protocol: as §1, §2, §3, §4, §5

CN(C)CCOC(=O)/C=C/CCCCCCCO [2-dimethylaminoethyl 10-hydroxy-2-decenoate]
percentage of reduction of the production of interstitial collagenase relative to the control ([1]; HT1080 with TPA): 50%
percentage of reduction of the production of interstitial collagenase relative to the control ([1]; HT1080 without TPA): 55%
effect on production of interstitial collagenase (in words) ([1]; HT61080 cells as printed, dose of 25 μg/ml): reduces the production of interstitial collagenase
percentage of reduction of the production of interstitial collagenase relative to the control ([2]; A2058 cells, compound 25 μg/ml, culture medium 96 hours after contact): 70%
effect on production of interstitial collagenase (in words) ([2]; A 2058 cells, dose of 25 μg/ml): reduces the production of interstitial collagenase

From patent US20050065212A1, “Use of at least one 10-hydroxy-2-decenoic acid derivative in compositions for treating the cuteous signs of aging” (priority 2001, published 2005)
